ChEMBL document CHEMBL4813930, “Cytotoxic Manoalide-Type Sesterterpenes from the Sponge Luffariella variabilis Collected in the South China Sea” (J Nat Prod, 2021)

Experiments:
L02 = assay: Cytotoxicity against human L02 cells by SRB assay; format: cell-based
ASPC1 = assay: Cytotoxicity against human ASPC1 cells by SRB assay; format: functional, cell-based
K562 = assay: Cytotoxicity against human K562 cells by MTT assay; format: functional, cell-based
MDA-MB-231 = assay: Cytotoxicity against human MDA-MB-231 cells by SRB assay; format: functional, cell-based
[1] = Cytotoxicity against human NCI-H69AR cells by SRB assay; format: functional, cell-based

Which IC50 (L02) does the source give for `COC(=O)Cc1cc(CC/C=C(\C)CC/C=C(\C)CCC=C(C)C)ccc1O` here?
The IC50 was over 30 µM.

What about the IC50 (ASPC1) of the same compound?
The IC50 was over 30 µM.

What about the IC50 (K562) of the same compound?
The IC50 was 15 µM.

What about the IC50 (MDA-MB-231) of the same compound?
The IC50 was over 30 µM.

And the IC50 [1]?
Its IC50 is over 30 µM.

Which results are given for `COc1cccc2c1C(=O)c1c(O)c3c(c(O)c1C2=O)C[C@@](O)(C(=O)CO)C[C@@H]3O[C@H]1C[C@H](N)[C@H](O)[C@H](C)O1` [DOXORUBICIN]?
IC50 (L02): < 1 µM; IC50 (ASPC1): < 1 µM; IC50 (K562): < 1 µM; IC50 (MDA-MB-231): < 1 µM; IC50 [1]: < 1 µM
